# Experimental data as given in patent US20250214977A1, “STAT6 INHIBITORS AND USES THEREOF” (Kymera Therapeutics, Inc., priority 2024, published 2025).
# Tested on: Phosphorylation of STAT6 in human PBMC (CD19+ B cells)
# Test: Phosphorylated STAT6 (pSTAT6) flow cytometry assay in human PBMC, IL-4 stimulated
# Type: cell-based
# Settings: compound 1 hour, 1 ng/ml IL-4 for 15 minutes, read-out: STAT6 IL4 pSTAT6 assay in PBMC: Average IC50
# Protocol: Example 2. Phosphorylated STAT6 (pSTAT6) Flow Cytometry Assay in Human PBMC
# Phosphorylation of STAT6 in human PBMC was quantitatively measured using flow cytometry technology. Human PBMC were seeded in 96-well plates with a density of 0.3 to 0.5 million cells per well in 100 μl fresh media. Compounds were then added to the assay plates with a final top concentration of up to 30 μM in a 1:3 dilution series with total of 9 doses. The assay plates were incubated for 1 hour at 37° C. under 5% CO2. The cells were then stimulated with 1 ng/ml of IL-4 (R&D Systems, Cat #6507-IL) for 15 minutes, followed by fixation for 30 minutes at 4° C. Cells were spun down at 350 g for 5 minutes. The supernatant was removed and cells were washed once with FACS buffer. Cells were permeabilized with 90% MeOH/H2O for 30 minutes at 4° C., followed by one wash with FACS buffer. Non-specific binding were blocked with human Fc for 1 hour at 4 C, followed by one wash with FACS buffer. AF488 conjugated pSTAT6 antibody (BD Biosciences, Cat #612600, 1:100 dilution) and PE conjugated CD19 antibody (BD Biosciences, Cat #341103, 1:50 dilution) diluted in 100 μl FACS buffer was added to each well with overnight incubation at 4° C. Cells were then washed once with FACS buffer and resuspended in 200 μl of FACS buffer for flow cytometry to quantify pSTAT6 in CD19+ B cells. The data was analyzed by GraphPad Prism and the dose dependent pSTAT6 inhibition was fit using the four-parameter inhibitor vs. response nonlinear regression.
row,Compound,IC50
1,CNc1ccc(-c2cc(C3=CCCN(C(=O)CCn4ccnn4)C3)cc3cc(C(=O)N(C)C)oc23)cc1 [Example I-204],> 100 µM
2,CN(C)C(=O)c1cc2cc(C3=CCCN(C(=O)CCc4cn5ccccc5n4)C3)ccc2o1 [Example I-251],> 100 µM
3,CN(C)C(=O)c1nc2ccc(C3=CCCN(C(=O)C4Cc5ccccc5CN4C=O)C3)cc2[nH]1 (centres unmarked) [Example I-198],> 100 µM
4,CC(C(=O)N1CCC=C(c2ccc3cc(C(=O)N(C)C)[nH]c3c2)C1)n1ccccc1=O (centres unmarked) [Example I-53],1 to 10 µM
5,C#Cc1cc(C2=CCCN(C(=O)CCn3ccnn3)C2)cc2cc(C(=O)N(C)C)oc12 [Example I-23],> 100 µM
6,CN(C)C(=O)c1cc2cc(C3=CCCN(C(=O)CCn4ccnn4)C3)cnc2s1 [Example I-244],> 100 µM
7,CN(C)C(=O)c1cc2ccc(C3=CCCN(C(=O)Cn4ccccc4=O)C3)cc2[nH]1 [Example I-316],> 100 µM
8,O=C(CCn1ccnn1)N1CCC=C(c2ccc3cc(C(=O)N4CCC4)[nH]c3c2)C1 [Example I-125],> 100 µM
9,CN(C)C(=O)c1cc2ccc(C3=CCCN(C(=O)CC(C)(C)NCc4ccccc4)C3)cc2[nH]1 [Example I-135],> 100 µM
10,CN(C)C(=O)c1cn2ccc(C3=CCCN(C(=O)CCn4ccnn4)C3)cc2n1 [Example I-289],> 100 µM
11,"CC(=O)N1CCc2ccccc2[C@H]1C(=O)N1CCC=C(c2ccc3oc(C(=O)N(C)C)cc3c2)C1 (single isomer, unassigned) [Example I-176]",> 100 µM
12,CN(C)C(=O)c1cc2cc(C3=CCCN(C(=O)CCc4ccccc4)C3)ccc2o1 [Example I-312],> 100 µM
13,COC(=O)C1CCC(c2ccc3oc(C(=O)N(C)C)cc3c2)CN1C(=O)CCn1ccnn1 (mixture of isomers) [Example I-1],> 100 µM
14,CN(C)C(=O)c1cc2ccc(C3=CCCN(C(=O)CCn4ccnn4)C3)cn2n1 [Example I-298],> 100 µM
15,Cc1nc(-c2ccccc2F)c(C(=O)N2CCC=C(c3ccc4cc(C(=O)N(C)C)[nH]c4c3)C2)o1 [Example I-89],> 100 µM
16,CN(C)C(=O)c1cc2ccc(C3=CCCN(C(=O)c4ccnnc4O)C3)cc2[nH]1 [Example I-146],> 100 µM
17,CN(C)C(=O)c1cc2cc(C3=CCCN(C(=O)CCn4ccnn4)C3)cc(CN3CCNCC3)c2o1 [Example I-167],> 100 µM
18,CN(C)C(=O)c1cc2cc(C3=CCCN(C(=O)Cn4nnc5ccccc54)C3)ccc2o1 [Example I-254],> 100 µM
19,COC(=O)CCC#Cc1cc(C2=CCCN(C(=O)C3Cc4ccccc4CN3C=O)C2)cc2cc(C(=O)N(C)C)oc12 (centres unmarked) [Example I-184],10 to 100 µM
20,CN(C)C(=O)c1cc2ccc(C3=CCCN(C(=O)CCn4ccnn4)C3)c(F)c2[nH]1 [Example I-304],< 0.1 µM
21,CN(C)C(=O)c1cc2ccc(C3=CCCN(C(=O)C4CCC4C(=O)O)C3)cc2[nH]1 (centres unmarked) [Example I-39],10 to 100 µM
22,CN(C)C(=O)c1nc2ccc(C3=CCCN(C(=O)CCn4ccnn4)C3)cc2s1 [Example I-227],10 to 100 µM
23,CN(C)C(=O)c1cc2cc(C3=CCCN(C(=O)CCn4cnc5ccccc54)C3)ccc2o1 [Example I-265],> 100 µM
24,"CN(C)C(=O)c1cc2cc([C@@H]3CN(C(=O)CCn4ccnn4)CC[C@H]3O)ccc2o1 (single isomer, unassigned) [Example I-209]",> 100 µM
25,CN(C)C(=O)c1cc2cc(C3=CCCN(C(=O)CCc4ccccn4)C3)ccc2o1 [Example I-268],> 100 µM
26,"C[C@H](Cn1ccnn1)C(=O)N1CCC=C(c2ccc3oc(C(=O)N(C)C)cc3c2)C1 (single isomer, unassigned) [Example I-228]",10 to 100 µM
27,CNc1ccc(-c2cc(C3=CCCN(C(=O)CCn4ccnn4)C3)cc3[nH]c(C(=O)N(C)C)cc23)c(Cl)c1 [Example I-118],< 0.1 µM
28,CN(C)C(=O)c1cc2cc(C3=CCCN(C(=O)CCn4ccnn4)C3)ccc2[nH]1 [Example I-308],> 100 µM
29,COC(=O)C1CCC(c2ccc3oc(C(=O)N(C)C)cc3c2)CN1C(=O)CCn1ccnn1 (mixture of isomers) [Example I-2],> 100 µM
